Laboratory results reported in patent publication US20250009742A1 (priority 2021, published 2025).

Assays:
[1] = Cell viability assay (EZ-Cytox), cytotoxicity; assay type: cell-based; details: human, HepAD38 cells; for viability at 65 h, 100 µM: read-out: Cytotoxicity % Livability (@100 μM)
Procedure: HepAD38 cells were cultured for 2 days in Dulbecco's Modified Eagle's medium (Welgene, LM001-05) supplemented with 10% FBS without tetracycline. […] After 65 hours of treatment, viability was measured using EZ-Cytox cell viability assay kit (Daeil Lab Service) according to the manufacturer's instructions. The absorbance was measured at 450 nm using a spectrophotometer (Spark, Tecan).

intracellular HBV DNA = test: Real-time PCR for intracellular HBV DNA in HepAD38 cells; assay type: cell-based; details: Hepatitis B virus, HePAD38, 65 h, 65 hours treatment

CS(=O)(=O)Nc1ccc(N(Cc2n[nH]c3c2CCOC3)C(=O)Nc2ccc(F)c(Cl)c2)cc1 [Example 16, N-(4-(3-(3-chloro-4-fluorophenyl)-1-((1,4,5,7-tetrahydropyrano[3,4-c]pyrazol-3-yl)methyl)ureido)phenyl)methanesulfonamide]
CC50 at 65 h [1]: 97.6 µM
IC50 (intracellular HBV DNA): > 1.1 µM

COc1ncc(N(Cc2cc(C(F)(F)F)[nH]n2)C(=O)Nc2cccc(C#N)c2)cn1 [Example 144, 3-(3-cyanophenyl)-1-(2-methoxypyrimidin-5-yl)-1-((5-(trifluoromethyl)-1H-pyrazol-3-yl)methyl)urea]
CC50 at 65 h [1]: 59.9 µM
viability at 65 h, 100 µM [1]: 6.3%
IC50 (intracellular HBV DNA): 0.22 µM

COc1ncc(N(Cc2cc(C#N)[nH]n2)C(=O)Nc2ccc(F)c(C(F)F)n2)cn1 [Example 212, 1-((5-cyano-1H-pyrazol-3-yl)methyl)-3-(6-(difluoromethyl)-5-fluoropyridin-2-yl)-1-(2-methoxypyrimidin-5-yl)urea]
CC50 at 65 h [1]: > 100 µM
viability at 65 h, 100 µM [1]: 99.4%
IC50 (intracellular HBV DNA): 0.21 µM

COc1ncc(N(Cc2cc(C(F)(F)F)[nH]n2)C(=O)Nc2ccc(F)c(Cl)c2)c(C)n1 [Example 28, 3-(3-chloro-4-fluorophenyl)-1-(2-methoxy-4-methylpyrimidin-5-yl)-1-((5-(trifluoromethyl)-1H-pyrazol-3-yl)methyl)urea]
CC50 at 65 h [1]: 47.2 µM
viability at 65 h, 100 µM [1]: 7%
IC50 (intracellular HBV DNA): 0.06 µM

CS(=O)(=O)Nc1ccc(N(Cc2n[nH]c3c2CCCO3)C(=O)Nc2ccc(F)c(Cl)c2)cc1 [Example 19, N-(4-(3-(3-chloro-4-fluorophenyl)-1-((1,4,5,6-tetrahydropyrano[2,3-c]pyrazol-3-yl)methyl)ureido)phenyl)methanesulfonamide]
CC50 at 65 h [1]: > 100 µM
IC50 (intracellular HBV DNA): > 1.1 µM

COc1ncc(N(Cc2cc(C(F)(F)F)[nH]n2)C(=O)Nc2ccc(F)c(Cl)c2)cn1 [Example 80, 3-(3-chloro-4-fluorophenyl)-1-(2-methoxypyrimidin-5-yl)-1-((5-(trifluoromethyl)-1H-pyrazol-3-yl)methyl)urea]
CC50 at 65 h [1]: 88.4 µM
viability at 65 h, 100 µM [1]: 21.4%
IC50 (intracellular HBV DNA): 0.019 µM

COc1ncc(N(Cc2cc(C(F)(F)F)[nH]n2)C(=O)Nc2nccc(-n3ccnc3)c2F)cn1 [Example 3, 3-(3-fluoro-4-(1H-imidazol-1-yl)pyridin-2-yl)-1-(2-methoxypyrimidin-5-yl)-1-((5-(trifluoromethyl)-1H-pyrazol-3-yl)methyl)urea]
CC50 at 65 h [1]: > 100 µM
viability at 65 h, 100 µM [1]: 74.2%
IC50 (intracellular HBV DNA): > 1.1 µM

CC(C)(O)c1ccc(N(Cc2n[nH]c3c2CCCO3)C(=O)Nc2ccc(F)c(Cl)c2)cn1 [Example 110, 3-(3-chloro-4-fluorophenyl)-1-(6-(2-hydroxypropan-2-yl)pyridin-3-yl)-1-((1,4,5,6-tetrahydropyrano[2,3-c]pyrazol-3-yl)methyl)urea]
CC50 at 65 h [1]: > 100 µM
IC50 (intracellular HBV DNA): > 1.1 µM

COc1ncc(N(Cc2cc(C(F)(F)F)[nH]n2)C(=O)Nc2nccc(F)c2F)cn1 [Example 173, 3-(3,4-difluoropyridin-2-yl)-1-(2-methoxypyrimidin-5-yl)-1-((5-(trifluoromethyl)-1H-pyrazol-3-yl)methyl)urea]
CC50 at 65 h [1]: > 100 µM
IC50 (intracellular HBV DNA): > 1.1 µM

COc1cncc(N(Cc2cc(C(F)F)[nH]n2)C(=O)Nc2ccc(F)c(Cl)c2)c1 [Example 77, 3-(3-chloro-4-fluorophenyl)-1-((5-(difluoromethyl)-1H-pyrazol-3-yl)methyl)-1-(5-methoxypyridin-3-yl)urea]
CC50 at 65 h [1]: > 100 µM
viability at 65 h, 100 µM [1]: 86.7%
IC50 (intracellular HBV DNA): 0.036 µM

COc1ncc(N(Cc2cc(C(F)(F)F)[nH]n2)C(=O)Nc2cccc(C#N)n2)cn1 [Example 145, 3-(6-cyanopyridin-2-yl)-1-(2-methoxypyrimidin-5-yl)-1-((5-(trifluoromethyl)-1H-pyrazol-3-yl)methyl)urea]
CC50 at 65 h [1]: > 100 µM
viability at 65 h, 100 µM [1]: 99.4%
IC50 (intracellular HBV DNA): > 1.1 µM

Cn1cc(N(Cc2n[nH]c3c2CCCC3)C(=O)Nc2ccc(F)c(Cl)c2)cn1 [Example 24, 3-(3-chloro-4-fluorophenyl)-1-(1-methyl-1H-pyrazol-4-yl)-1-((4,5,6,7-tetrahydro-1H-indazol-3-yl)methyl)urea]
CC50 at 65 h [1]: > 100 µM
viability at 65 h, 100 µM [1]: 53.4%
IC50 (intracellular HBV DNA): 0.16 µM

COc1ncc(N(Cc2cc(C#N)[nH]n2)C(=O)Nc2ccc(C#N)c(C(F)F)c2)cn1 [Example 153, 1-((5-cyano-1H-pyrazol-3-yl)methyl)-3-(4-cyano-3-(difluoromethyl)phenyl)-1-(2-methoxypyrimidin-5-yl)urea]
CC50 at 65 h [1]: > 100 µM
viability at 65 h, 100 µM [1]: 94.2%
IC50 (intracellular HBV DNA): 0.21 µM

COc1ncc(N(Cc2cc(C(F)(F)F)[nH]n2)C(=O)Nc2cncc(C(F)F)c2)cn1 [Example 174, 3-(5-(difluoromethyl)pyridin-3-yl)-1-(2-methoxypyrimidin-5-yl)-1-((5-(trifluoromethyl)-1H-pyrazol-3-yl)methyl)urea]
CC50 at 65 h [1]: > 100 µM
viability at 65 h, 100 µM [1]: 96.2%
IC50 (intracellular HBV DNA): 0.48 µM

CC(C)(O)c1cc(N(Cc2n[nH]c3c2CCOC3)C(=O)Nc2ccc(F)c(Cl)c2)ccn1 [Example 112, 3-(3-chloro-4-fluorophenyl)-1-(2-(2-hydroxypropan-2-yl)pyridin-4-yl)-1-((1,4,5,7-tetrahydropyrano[3,4-c]pyrazol-3-yl)methyl)urea]
CC50 at 65 h [1]: > 66 µM
IC50 (intracellular HBV DNA): > 1.1 µM

N#Cc1cncc(N(Cc2n[nH]c3c2COCC3)C(=O)Nc2ccc(F)c(Cl)c2)c1 [Example 129, 3-(3-chloro-4-fluorophenyl)-1-(5-cyanopyridin-3-yl)-1-((1,4,6,7-tetrahydropyrano[4,3-c]pyrazol-3-yl)methyl)urea]
CC50 at 65 h [1]: > 100 µM
viability at 65 h, 100 µM [1]: 93.1%
IC50 (intracellular HBV DNA): 0.06 µM

CC(C)(O)c1ccc(N(Cc2n[nH]c3c2CCOC3)C(=O)Nc2ccc(F)c(Cl)c2)cn1 [Example 111, 3-(3-chloro-4-fluorophenyl)-1-(6-(2-hydroxypropan-2-yl)pyridin-3-yl)-1-((1,4,5,7-tetrahydropyrano[3,4-c]pyrazol-3-yl)methyl)urea]
CC50 at 65 h [1]: > 100 µM
IC50 (intracellular HBV DNA): > 1.1 µM

COc1ncc(N(Cc2cc(C(F)(F)F)[nH]n2)C(=O)Nc2cc(F)c(F)c(F)n2)cn1 [Example 224, 1-(2-methoxypyrimidin-5-yl)-1-((5-(trifluoromethyl)-1H-pyrazol-3-yl)methyl)-3-(4,5,6-trifluoropyridin-2-yl)urea]
CC50 at 65 h [1]: > 100 µM
viability at 65 h, 100 µM [1]: 100%
IC50 (intracellular HBV DNA): 0.21 µM

COc1ncc(N(Cc2cc(C(F)(F)F)[nH]n2)C(=O)Nc2cc(N(C)C)c(F)c(C#N)n2)cn1 [Example 164, 3-(6-cyano-4-(dimethylamino)-5-fluoropyridin-2-yl)-1-(2-methoxypyrimidin-5-yl)-1-((5-(trifluoromethyl)-1H-pyrazol-3-yl)methyl)urea]
CC50 at 65 h [1]: > 100 µM
viability at 65 h, 100 µM [1]: 100%
IC50 (intracellular HBV DNA): > 1.1 µM

C=C(C)c1c(CN(C(=O)Nc2ccc(F)c(Cl)c2)c2cnc(OC)nc2)n[nH]c1C(F)F [Example 93, 3-(3-chloro-4-fluorophenyl)-1-((5-(difluoromethyl)-4-(prop-1-en-2-yl)-1H-pyrazol-3-yl)methyl)-1-(2-methoxypyrimidin-5-yl)urea]
CC50 at 65 h [1]: > 100 µM
IC50 (intracellular HBV DNA): 0.32 µM

COC12CC(N(Cc3cc(C(F)(F)F)[nH]n3)C(=O)Nc3ccc(F)c(C(F)F)n3)(C1)C2 [Example 214, 3-(6-(difluoromethyl)-5-fluoropyridin-2-yl)-1-(3-methoxybicyclo[1.1.1]pentan-1-yl)-1-((5-(trifluoromethyl)-1H-pyrazol-3-yl)methyl)urea]
CC50 at 65 h [1]: > 100 µM
viability at 65 h, 100 µM [1]: 76.8%
IC50 (intracellular HBV DNA): 0.22 µM

CS(=O)(=O)Nc1ccc(N(Cc2n[nH]c3c2CCCO3)C(=O)Nc2ccc(F)c(Cl)c2)cn1 [Example 18, N-(5-(3-(3-chloro-4-fluorophenyl)-1-((1,4,5,6-tetrahydropyrano[2,3-c]pyrazol-3-yl)methyl)ureido)pyridin-2-yl)methanesulfonamide]
CC50 at 65 h [1]: > 100 µM
IC50 (intracellular HBV DNA): > 1.1 µM

COc1cncc(N(Cc2n[nH]c3c2COCC3)C(=O)Nc2ccc(F)c(Cl)c2)c1 [Example 75, 3-(3-chloro-4-fluorophenyl)-1-(5-methoxypyridin-3-yl)-1-((1,4,6,7-tetrahydropyrano[4,3-c]pyrazol-3-yl)methyl)urea]
CC50 at 65 h [1]: > 100 µM
viability at 65 h, 100 µM [1]: 92.1%
IC50 (intracellular HBV DNA): 0.036 µM

CS(=O)(=O)Nc1ccc(N(Cc2n[nH]c3c2CCOC3)C(=O)Nc2ccc(F)c(Cl)c2)cn1 [Example 17, N-(5-(3-(3-chloro-4-fluorophenyl)-1-((1,4,5,7-tetrahydropyrano[3,4-c]pyrazol-3-yl)methyl)ureido)pyridin-2-yl)methanesulfonamide]
CC50 at 65 h [1]: > 100 µM
IC50 (intracellular HBV DNA): > 1.1 µM

COCCc1c(CN(C(=O)Nc2ccc(F)c(Cl)c2)c2ccc(OC)nc2)n[nH]c1C(F)F [Example 88, 3-(3-chloro-4-fluorophenyl)-1-((5-(difluoromethyl)-4-(2-methoxyethyl)-1H-pyrazol-3-yl)methyl)-1-(6-methoxypyridin-3-yl)urea]
CC50 at 65 h [1]: > 100 µM
viability at 65 h, 100 µM [1]: 74.5%
IC50 (intracellular HBV DNA): > 1.1 µM

COc1cc(N(Cc2cc(C(F)(F)F)[nH]n2)C(=O)Nc2ccc(F)c(Cl)c2)ccn1 [Example 74, 3-(3-chloro-4-fluorophenyl)-1-(2-methoxypyridin-4-yl)-1-((5-(trifluoromethyl)-1H-pyrazol-3-yl)methyl)urea]
CC50 at 65 h [1]: > 100 µM
viability at 65 h, 100 µM [1]: 55.6%
IC50 (intracellular HBV DNA): 0.022 µM

COc1ncc(N(Cc2cc(C(F)(F)F)[nH]n2)C(=O)Nc2ccc(F)c(Cl)c2)cc1C#N [Example 119, 3-(3-chloro-4-fluorophenyl)-1-(5-cyano-6-methoxypyridin-3-yl)-1-((5-(trifluoromethyl)-1H-pyrazol-3-yl)methyl)urea]
CC50 at 65 h [1]: < 50 µM
viability at 65 h, 100 µM [1]: 18.8%
IC50 (intracellular HBV DNA): 0.32 µM
